Measured values as given in patent US6962909B2, “Treatment of neovascularization disorders with squalimine” (Genaera Corporation, priority 1995, dated 2005).

Tested on: human umbilical venous endothelial cells
Experiment: LPS/TNF-α-induced neutrophil adherence to endothelial cells
Type: cell-based
Settings: squalamine 10 μg, 1.0 μg or 0.1 μg; three subjects
Procedure: To determine if squalamine inhibited this particular endothelial cell function, standard adhesion assays were performed as outlined in Gamble et al., J. Imm. Methods 109, 1988, 175-184. […] In these experiments, approximately 2×10^5 human umbilical venous cells (passage 2-6) were plated per well. The cells were grown in serum-free media overnight. For induction, either TNF-α (40 ng/ml) was added to endothelial cells for 6 hours prior to adding neutrophils or LPS (100 ng/ml) was added for 4-6 hours. […] After activation of the endothelial cells, approximately 50×10^6 neutrophils were added per well. The plates were gently rocked for 30 minutes at room temperature, followed by removal of the media and washing in serum-free media three times and then photographing of each well. Experiments to test the effects of squalamine were performed by adding squalamine at 10 μg, 1.0 μg, or 0.1 μg at the time of adding LPS or TNF-α. A second repeat dose of squalamine was added at the time of adding neutrophils. A monoclonal Ab to ICAM-1 was a positive control.

With `CC(CC[C@@H](OS(=O)(=O)O)C(C)C)[C@H]1CCC2C3C(CC[C@@]21C)[C@@]1(C)CC[C@H](NCCCNCCCCN)C[C@@H]1C[C@H]3O` (stereo partly shown) [squalamine] the “Inhibition of neutrophil adherence” value was “no inhibition”.
